# Laboratory results: patent publication US20210154280A1, “NEO-EPITOPE VACCINES AND METHODS OF TREATING CANCER” (Epivax Oncology, Inc., priority 2019, published 2021)
# How the values were obtained:
# [1] = tested on: CT26 murine colon tumor cells; assay: Anti-tumor activity with or without poly-ICLC, CT26 murine tumor model (Example 13); type: in vivo, BALB/c mice; conditions: day 25 post-tumor implantation; relative to PBS or poly-ICLC alone; sc twice per week for three weeks
# Method: The goal of this experiment was to determine the requirement for the inclusion of the adjuvant poly-ICLC in a peptide vaccine containing ANCER™ selected neoantigens. For this experiment, female BALB/c mice were implanted subcutaneously with 3×10^5 CT26 murine colon tumor cells. Tumor growth was monitored by caliper measurement and mice were sacrificed 45 days after tumor implantation or when tumor volumes reached 2000 mm^3, whichever came first.
# Four vaccine groups were tested (n=10 mice/group): • Group 1=PBS only • Group 2=PBS with 50 μg poly-ICLC • Group 3=20 ANCER™ selected (uncapped) peptides with 50 μg poly-ICLC • Group 4=20 ANCER™ selected (uncapped) peptides only
# Peptide vaccines were comprised of 20 different ANCER™ selected peptides at a concentration of 5 μg/peptide for a total dose of 100 μg peptide per immunization. Mice were immunized subcutaneously in the opposite flank from tumor implantation twice per week for three weeks, starting at day 4 post-tumor implantation.
# CT26 tumor cells = assay: CT26 tumor growth and survival after vaccination (Example 1); conditions: N=10 per group
# Method: Mice were separated into three groups: 1) PBS control; 2) poly-ICLC (vehicle); 3) ANCER™-selected CT26 Neoantigen Peptides+poly-ICLC. • Group 1: PBS, sc injections at days 5, 8, 12, 15, 19, 22, and 26. • Group 2: poly-ICLC, 50 μg, sc injections at days 5, 8, 12, 15, 19, 22, and 26. • Group 3: 5 μg/ANCER™-selected CT26 Neoantigen Peptide (100 μg total ANCER™-selected CT26 Neoantigen Peptides)+50 μg poly-ICLC, sc injections at days 5, 8, 12, 15, 19, 22, and 26.
# All mice (N=10 mice per group) were injected 3*10^5 CT26 tumor cells in 0% Matrigel at day 0. Mice were sacrificed once the tumor volume reached 2,000 mm^3 or at day 45, whichever came first.
substance,measurement,setting,value
poly-ICLC,control of tumor growth,[1],no difference in tumor growth kinetics
same,mice that survived the 45 days of the experiment (in words),CT26 tumor cells,None
same,"mice reaching a tumor volume of at least 2,000 mm^3 (endpoint)",CT26 tumor cells; by day 28,60%
